The test system of test [1] is Swiss albino mice. Put plainly: assay of contortions induced by phenylbenzoquinone. The test is classed as in vivo. Conditions: for ED50: Mus musculus.
For test [2], the system named is Swiss albino mice. Put plainly: hot-plate assay. It counts as in vivo. Conditions: Mus musculus, 0.5 h, sc, hot-plate 55° C., 30 minutes after administration, read-out: ED-50 hot-plate assay (55° C.). On the technique in general: In hot-plate and tail-flick tests a longer latency is read as antinociception.
Description: The product under study was administered s.c. or i.p. and 30 minutes later the analgesic effect was registered. For this the animals were placed on a metallic surface kept at 50° C. or 55° C. and the time registered (latency) until the licked their hind legs and a jump. The analgesic activity was calculated at each dose, comparing the potency of the treated group with the control group. Using the results obtained the ED-50 was calculated.
Where [3] appears, read: mice, oral route, dose inhibiting by 50% the contortions induced by phenylbenzoquinone i.p. 60 minutes after product.
Setting [4] is: mice, s.c. route, dose inhibiting by 50% the contortions induced by phenylbenzoquinone i.p. 30 minutes after product.

The text below walks through data of patent US6384055B1, “Utilization of derivatives of tetrahydropyridines (or 4-hydroxypiperidines)-butylazols in the preparation of a medicament for the treatment of pain” (Laboratorios Del Dr. Esteves, S.A., priority 1998, dated 2002).

As to `CC(=O)Oc1ccccc1C(=O)O` [Aspirin, aspirin], the ED50 in the test on Swiss albino mice [1] (0.5 h, mice, s.c. route, dose inhibiting by 50% the contortions induced by phenylbenzoquinone i.p. 30 minutes after product, read-out: ED-50 S.C. route) came out at 80 mg/kg; in the test with Swiss albino mice [1] (1 h, mice, oral route, dose inhibiting by 50% the contortions induced by phenylbenzoquinone i.p. 60 minutes after product, read-out: ED-50 Oral route), 100 mg/kg.
Regarding `CN1CC[C@]23c4c5ccc(O)c4O[C@H]2[C@@H](O)C=C[C@H]3[C@H]1C5` [Morfine, morphine], the ED50 amounted to 1 mg/kg in the test with Swiss albino mice [1] (0.5 h, read-out: ED-50 S.C. route); 4 mg/kg with Swiss albino mice [1] (1 h, read-out: ED-50 Oral route); 2 mg/kg in the test on Swiss albino mice [2].
For `OC1(c2ccc(Cl)cc2)CCN(CCCCn2cc(Cl)cn2)CC1` [Example 5], the “ED-50 Oral route” value in the test on Swiss albino mice [1] (setting [3]) is 20 mg/kg. Besides, in the test on Swiss albino mice [1] (setting [4]), the “ED-50 S.C. route” value came to 28 mg/kg.
The corresponding values for `Cc1c(N(C)CS(=O)(=O)[O-])c(=O)n(-c2ccccc2)n1C.[Na+]` [Dipirone, dipirone] are 223 mg/kg and 24 mg/kg.
